What was measured:
[1] = target: Sigma intracellular receptor 2 (Homo sapiens, UniProt Q5BJF2); settings: Compound concentration 10.0 uM
[2] = target: Serine/threonine-protein kinase N1 (Homo sapiens) (UniProt Q16512); settings: Compound concentration 1000.0 nM
[3] = target: Tyrosine-protein kinase receptor TYRO3 (Homo sapiens) (UniProt Q06418); settings: Compound concentration 1000.0 nM
[4] = target: Serine/threonine-protein kinase ULK1 (Homo sapiens) (UniProt O75385); settings: Compound concentration 1000.0 nM
[5] = target: Phosphatidylinositol 4-phosphate 3-kinase C2 domain-containing subunit beta (Homo sapiens) (UniProt O00750); settings: Compound concentration 1000.0 nM
Chain of Phosphatidylinositol 4-phosphate 3-kinase C2 domain-containing subunit beta (Homo sapiens) (O00750 whole entry, the tested form may be a part): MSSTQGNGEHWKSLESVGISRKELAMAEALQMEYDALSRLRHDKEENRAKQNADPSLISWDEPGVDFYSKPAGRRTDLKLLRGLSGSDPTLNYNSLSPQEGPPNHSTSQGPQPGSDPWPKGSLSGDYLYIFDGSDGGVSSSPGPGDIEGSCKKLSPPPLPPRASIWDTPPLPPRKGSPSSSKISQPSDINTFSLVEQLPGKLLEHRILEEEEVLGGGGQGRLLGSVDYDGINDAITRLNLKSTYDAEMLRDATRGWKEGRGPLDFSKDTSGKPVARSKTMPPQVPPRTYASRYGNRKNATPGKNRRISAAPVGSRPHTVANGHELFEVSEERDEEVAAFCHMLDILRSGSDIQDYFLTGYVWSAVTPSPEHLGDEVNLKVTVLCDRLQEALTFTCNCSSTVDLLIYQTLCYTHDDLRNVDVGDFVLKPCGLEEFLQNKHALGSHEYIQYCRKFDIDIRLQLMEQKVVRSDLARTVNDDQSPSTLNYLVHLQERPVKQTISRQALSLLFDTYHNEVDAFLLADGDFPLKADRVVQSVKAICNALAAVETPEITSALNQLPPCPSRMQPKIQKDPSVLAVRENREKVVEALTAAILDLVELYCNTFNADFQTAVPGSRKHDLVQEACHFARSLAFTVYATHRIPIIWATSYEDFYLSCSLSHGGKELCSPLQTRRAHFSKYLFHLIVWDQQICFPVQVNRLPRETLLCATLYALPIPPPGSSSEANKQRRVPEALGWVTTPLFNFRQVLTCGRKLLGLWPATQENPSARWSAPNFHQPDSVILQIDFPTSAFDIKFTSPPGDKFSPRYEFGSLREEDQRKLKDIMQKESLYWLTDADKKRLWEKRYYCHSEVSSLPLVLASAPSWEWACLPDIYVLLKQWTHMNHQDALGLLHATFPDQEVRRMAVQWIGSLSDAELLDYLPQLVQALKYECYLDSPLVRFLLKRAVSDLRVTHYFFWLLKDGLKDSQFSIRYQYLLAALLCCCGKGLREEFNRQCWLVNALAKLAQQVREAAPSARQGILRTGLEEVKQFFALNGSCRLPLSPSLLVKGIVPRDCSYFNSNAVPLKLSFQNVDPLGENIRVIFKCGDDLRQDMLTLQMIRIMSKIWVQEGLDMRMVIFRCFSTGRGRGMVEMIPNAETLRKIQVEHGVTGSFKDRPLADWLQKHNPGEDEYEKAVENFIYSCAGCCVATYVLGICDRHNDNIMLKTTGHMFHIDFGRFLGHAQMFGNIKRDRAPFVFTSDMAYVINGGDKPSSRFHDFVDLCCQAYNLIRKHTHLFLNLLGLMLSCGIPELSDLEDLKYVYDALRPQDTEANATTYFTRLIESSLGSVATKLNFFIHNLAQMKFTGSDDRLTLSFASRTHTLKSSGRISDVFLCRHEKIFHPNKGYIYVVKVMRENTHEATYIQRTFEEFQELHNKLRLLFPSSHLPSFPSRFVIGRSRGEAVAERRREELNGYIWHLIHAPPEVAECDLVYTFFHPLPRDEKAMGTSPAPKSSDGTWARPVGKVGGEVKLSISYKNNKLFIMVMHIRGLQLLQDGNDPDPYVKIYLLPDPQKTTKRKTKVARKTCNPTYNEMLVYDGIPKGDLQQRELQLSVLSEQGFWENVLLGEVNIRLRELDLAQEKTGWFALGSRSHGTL

[6] = target: Serine/threonine-protein kinase D1 (Homo sapiens) (UniProt Q15139); settings: Compound concentration 1000.0 nM
[7] = target: Tyrosine-protein kinase Blk (Homo sapiens) (UniProt P51451); settings: Compound concentration 1000.0 nM
Chain of Tyrosine-protein kinase Blk (Homo sapiens) (P51451 2-505 limits assumed): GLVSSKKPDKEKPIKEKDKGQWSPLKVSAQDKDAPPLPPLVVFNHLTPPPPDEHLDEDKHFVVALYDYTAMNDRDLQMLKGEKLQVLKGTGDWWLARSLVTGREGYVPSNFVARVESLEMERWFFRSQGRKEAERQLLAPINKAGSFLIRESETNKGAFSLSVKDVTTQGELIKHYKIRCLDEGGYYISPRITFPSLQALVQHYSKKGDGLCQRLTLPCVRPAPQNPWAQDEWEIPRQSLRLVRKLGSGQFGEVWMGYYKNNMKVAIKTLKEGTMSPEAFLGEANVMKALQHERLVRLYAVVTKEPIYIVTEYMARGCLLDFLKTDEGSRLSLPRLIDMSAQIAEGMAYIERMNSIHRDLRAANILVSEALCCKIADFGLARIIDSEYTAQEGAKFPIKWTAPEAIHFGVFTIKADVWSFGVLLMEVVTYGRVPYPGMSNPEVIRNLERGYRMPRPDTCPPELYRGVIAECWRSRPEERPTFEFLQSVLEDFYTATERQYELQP

[8] = target: TGF-beta receptor type-1 (Homo sapiens) (UniProt P36897); settings: Compound concentration 1000.0 nM
[9] = target: Serine/threonine-protein kinase Nek7 (Homo sapiens) (UniProt Q8TDX7); settings: Compound concentration 1000.0 nM
[10] = target: 5-hydroxytryptamine receptor 2B (Homo sapiens) (UniProt P41595); settings: Compound concentration 10.0 uM
[11] = tested on: Epidermal growth factor receptor (Homo sapiens), P00533 [G719S]; settings: Compound concentration 1000.0 nM
[12] = target: Calcium/calmodulin-dependent protein kinase type 1G (Homo sapiens) (UniProt Q96NX5); settings: Compound concentration 1000.0 nM
Chain of Calcium/calmodulin-dependent protein kinase type 1G (Homo sapiens) (Q96NX5 whole entry): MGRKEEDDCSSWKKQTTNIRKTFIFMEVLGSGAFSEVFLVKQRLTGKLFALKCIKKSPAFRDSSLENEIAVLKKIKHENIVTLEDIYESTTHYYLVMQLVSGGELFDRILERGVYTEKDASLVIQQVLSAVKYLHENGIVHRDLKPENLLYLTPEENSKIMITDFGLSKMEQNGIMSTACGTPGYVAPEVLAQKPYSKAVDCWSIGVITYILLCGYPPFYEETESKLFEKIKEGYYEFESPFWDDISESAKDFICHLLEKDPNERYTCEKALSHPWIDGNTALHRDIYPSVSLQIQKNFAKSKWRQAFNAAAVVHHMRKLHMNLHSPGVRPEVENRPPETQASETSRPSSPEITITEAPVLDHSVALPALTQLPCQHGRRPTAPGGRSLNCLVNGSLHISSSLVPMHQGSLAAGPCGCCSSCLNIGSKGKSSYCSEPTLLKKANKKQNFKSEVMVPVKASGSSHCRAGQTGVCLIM

[13] = target: Activated CDC42 kinase 1 (Homo sapiens) (UniProt Q07912); settings: Compound concentration 1000.0 nM
[14] = target: Mitogen-activated protein kinase kinase kinase kinase 5 (Homo sapiens) (UniProt Q9Y4K4); settings: Compound concentration 1000.0 nM
Insulin receptor = Insulin receptor (Homo sapiens, UniProt P06213); settings: Compound concentration 1000.0 nM
[15] = target: Ephrin type-A receptor 6 (Homo sapiens) (UniProt Q9UF33); settings: Compound concentration 1000.0 nM
[16] = target: Serine/threonine-protein kinase PLK4 (Homo sapiens) (UniProt O00444); settings: Compound concentration 1000.0 nM
[17] = target: Ephrin type-A receptor 3 (Homo sapiens) (UniProt P29320); settings: Compound concentration 1000.0 nM
[18] = target: Cyclin-dependent kinase 4 (Homo sapiens) (UniProt P11802); settings: Compound concentration 1000.0 nM
[19] = target: GABA-A receptor; anion channel (Rattus norvegicus) (UniProt O09028+P15431+P18506+P18508+P19969+P20236+P23574+P23576+P28471+P28473+P30191+P62813+P63079+P63138+Q91ZM7+Q9ES14); settings: Compound concentration 10.0 uM
[20] = target: Serine/threonine-protein kinase Nek3 (Homo sapiens) (UniProt P51956); settings: Compound concentration 1000.0 nM
Chain of Serine/threonine-protein kinase Nek3 (Homo sapiens) (P51956 whole entry): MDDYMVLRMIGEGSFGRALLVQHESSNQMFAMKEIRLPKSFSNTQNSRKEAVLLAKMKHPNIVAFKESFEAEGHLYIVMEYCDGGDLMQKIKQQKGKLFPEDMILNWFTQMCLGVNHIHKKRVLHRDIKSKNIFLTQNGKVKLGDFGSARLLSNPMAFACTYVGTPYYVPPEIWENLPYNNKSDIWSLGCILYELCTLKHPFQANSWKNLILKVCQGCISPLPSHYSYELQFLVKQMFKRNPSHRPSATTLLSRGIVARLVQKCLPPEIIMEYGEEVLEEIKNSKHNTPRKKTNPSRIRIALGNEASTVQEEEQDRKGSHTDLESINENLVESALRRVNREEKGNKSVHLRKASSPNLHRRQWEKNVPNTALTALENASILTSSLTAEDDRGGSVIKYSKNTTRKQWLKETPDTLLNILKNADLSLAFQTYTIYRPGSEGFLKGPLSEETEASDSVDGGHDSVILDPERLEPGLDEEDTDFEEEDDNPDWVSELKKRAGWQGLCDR

[21] = target: Activin receptor type-1B (Homo sapiens) (UniProt P36896); settings: Compound concentration 1000.0 nM
[22] = target: Mitogen-activated protein kinase kinase kinase 13 (Homo sapiens) (UniProt O43283); settings: Compound concentration 1000.0 nM
Chain of Mitogen-activated protein kinase kinase kinase 13 (Homo sapiens) (O43283 whole entry): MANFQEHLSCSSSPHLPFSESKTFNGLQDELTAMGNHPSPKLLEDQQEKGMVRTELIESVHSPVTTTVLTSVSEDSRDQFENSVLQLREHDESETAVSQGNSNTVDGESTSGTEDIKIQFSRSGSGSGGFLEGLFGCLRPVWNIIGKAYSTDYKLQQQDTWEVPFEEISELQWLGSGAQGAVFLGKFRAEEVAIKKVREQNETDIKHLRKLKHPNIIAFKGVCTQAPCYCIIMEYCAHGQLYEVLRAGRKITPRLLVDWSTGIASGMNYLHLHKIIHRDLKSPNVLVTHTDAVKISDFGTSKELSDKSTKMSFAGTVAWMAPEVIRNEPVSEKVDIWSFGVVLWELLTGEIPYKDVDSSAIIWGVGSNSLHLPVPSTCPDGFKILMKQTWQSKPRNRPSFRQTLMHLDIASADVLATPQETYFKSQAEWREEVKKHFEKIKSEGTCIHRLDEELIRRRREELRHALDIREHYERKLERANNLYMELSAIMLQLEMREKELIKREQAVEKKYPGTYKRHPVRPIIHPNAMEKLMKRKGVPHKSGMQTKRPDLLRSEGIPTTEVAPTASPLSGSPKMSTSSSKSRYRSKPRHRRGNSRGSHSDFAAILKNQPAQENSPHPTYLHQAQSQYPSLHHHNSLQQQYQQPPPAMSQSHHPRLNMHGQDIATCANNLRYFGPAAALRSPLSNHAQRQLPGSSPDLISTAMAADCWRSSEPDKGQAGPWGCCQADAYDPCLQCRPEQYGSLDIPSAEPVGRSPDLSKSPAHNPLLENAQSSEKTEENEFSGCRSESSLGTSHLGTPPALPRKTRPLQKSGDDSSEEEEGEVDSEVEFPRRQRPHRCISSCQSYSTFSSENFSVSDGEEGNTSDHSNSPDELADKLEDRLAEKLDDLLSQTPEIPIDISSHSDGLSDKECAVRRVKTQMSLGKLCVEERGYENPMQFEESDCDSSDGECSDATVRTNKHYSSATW

[23] = target: Insulin receptor-related protein (Homo sapiens) (UniProt P14616); settings: Compound concentration 1000.0 nM
[24] = target: Phosphatidylinositol 4,5-bisphosphate 3-kinase catalytic subunit delta isoform (Homo sapiens) (UniProt O00329); settings: Compound concentration 1000.0 nM
[25] = target: MAP kinase-interacting serine/threonine-protein kinase 1 (Homo sapiens) (UniProt Q9BUB5); settings: Compound concentration 1000.0 nM
Chain of MAP kinase-interacting serine/threonine-protein kinase 1 (Homo sapiens) (Q9BUB5 whole entry, looked up, canonical isoform): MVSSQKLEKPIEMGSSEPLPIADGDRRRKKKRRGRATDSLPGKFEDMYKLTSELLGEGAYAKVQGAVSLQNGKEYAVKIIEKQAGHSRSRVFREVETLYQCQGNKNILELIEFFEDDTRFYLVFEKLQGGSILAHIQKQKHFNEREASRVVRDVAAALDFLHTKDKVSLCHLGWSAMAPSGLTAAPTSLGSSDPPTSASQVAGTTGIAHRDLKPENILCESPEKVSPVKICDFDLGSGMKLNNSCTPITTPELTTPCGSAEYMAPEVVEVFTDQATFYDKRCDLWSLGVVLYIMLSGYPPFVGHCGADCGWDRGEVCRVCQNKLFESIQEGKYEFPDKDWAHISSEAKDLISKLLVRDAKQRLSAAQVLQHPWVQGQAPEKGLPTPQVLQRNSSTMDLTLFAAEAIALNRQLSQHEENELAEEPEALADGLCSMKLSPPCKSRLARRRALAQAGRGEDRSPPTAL

[26] = target: Casein kinase I isoform gamma-1 (Homo sapiens) (UniProt Q9HCP0); settings: Compound concentration 1000.0 nM
[27] = target: Mitogen-activated protein kinase kinase kinase kinase 3 (Homo sapiens) (UniProt Q8IVH8); settings: Compound concentration 1000.0 nM
[28] = target: Focal adhesion kinase 1 (Homo sapiens) (UniProt Q05397); settings: Compound concentration 1000.0 nM
[29] = target: Casein kinase I isoform gamma-2 (Homo sapiens) (UniProt P78368); settings: Compound concentration 1000.0 nM
[30] = target: Cyclin-dependent kinase 13 (Homo sapiens) (UniProt Q14004); settings: Compound concentration 1000.0 nM
[31] = target: Myosin light chain kinase (Homo sapiens) (UniProt Q32MK0); settings: Compound concentration 1000.0 nM
[32] = target: STE20/SPS1-related proline-alanine-rich protein kinase (Homo sapiens) (UniProt Q9UEW8); settings: Compound concentration 1000.0 nM
[33] = target: Mitogen-activated protein kinase 1 (Homo sapiens) (UniProt P28482); settings: Compound concentration 1000.0 nM
Chain of Mitogen-activated protein kinase 1 (Homo sapiens) (P28482 whole entry): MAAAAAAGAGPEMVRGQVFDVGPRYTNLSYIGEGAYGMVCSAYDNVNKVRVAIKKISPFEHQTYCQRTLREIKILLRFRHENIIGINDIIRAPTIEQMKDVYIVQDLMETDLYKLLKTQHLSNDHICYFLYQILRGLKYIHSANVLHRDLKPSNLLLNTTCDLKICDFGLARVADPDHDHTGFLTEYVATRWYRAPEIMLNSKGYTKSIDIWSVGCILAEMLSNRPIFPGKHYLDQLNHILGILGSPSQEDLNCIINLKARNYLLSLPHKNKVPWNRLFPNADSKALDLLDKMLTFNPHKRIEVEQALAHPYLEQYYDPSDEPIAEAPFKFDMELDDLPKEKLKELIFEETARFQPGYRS

[34] = target: Serine/threonine-protein kinase PknB (Mycobacterium tuberculosis) (UniProt P9WI81); settings: Compound concentration 1000.0 nM
[35] = tested on: Phosphatidylinositol 4,5-bisphosphate 3-kinase catalytic subunit alpha isoform (Homo sapiens), P42336 [M1043I]; settings: Compound concentration 1000.0 nM
[36] = target: Alpha-2B adrenergic receptor (Homo sapiens, UniProt P18089); test: GPCRScan assay: inhibition of Alpha2B; design: radioligand conc. used [nm] 1.5 – 2.0, parental cells HEKT
[37] = target: Serine/threonine-protein kinase 33 (Homo sapiens) (UniProt Q9BYT3); settings: Compound concentration 1000.0 nM

Compound: Cc1c(C(=O)O)cc(-c2ccc(C3CCNCC3)cc2)c2ccc(-c3ccc(C(F)(F)F)cc3)cc12 [PPTN-NC]
- inhibition [1]: 92.7%
- residual activity [2]: 100%
- residual activity [3]: 100%
- residual activity [4]: 100%
- residual activity [5]: 100%
- residual activity [6]: 100%
- residual activity [7]: 100%
- residual activity [8]: 89%
- residual activity [9]: 100%
- inhibition [10]: 6.6%
- residual activity [11]: 94%
- residual activity [12]: 100%
- residual activity [13]: 100%
- residual activity [14]: 100%
- residual activity (Insulin receptor): 100%
- residual activity [15]: 100%
- residual activity [16]: 96%
- residual activity [17]: 100%
- residual activity [18]: 100%
- inhibition [19]: 1.21%
- residual activity [20]: 85%
- residual activity [21]: 100%
- residual activity [22]: 100%
- residual activity [23]: 100%
- residual activity [24]: 100%
- residual activity [25]: 100%
- residual activity [26]: 100%
- residual activity [27]: 100%
- residual activity [28]: 100%
- residual activity [29]: 100%
- residual activity [30]: 100%
- residual activity [31]: 94%
- residual activity [32]: 100%
- residual activity [33]: 100%
- residual activity [34]: 100%
- residual activity [35]: 100%
- Ki [36]: 1840 nM
- residual activity [37]: 100%

Compound: O=C(O)c1cc(-c2ccc(C3CCNCC3)cc2)c2ccc(-c3ccc(C(F)(F)F)cc3)cc2c1 [PPTN]
- inhibition [1]: 95.6%
- residual activity [2]: 100%
- residual activity [3]: 100%
- residual activity [4]: 100%
- residual activity [5]: 100%
- residual activity [6]: 100%
- residual activity [7]: 86%
- residual activity [8]: 81%
- residual activity [9]: 100%
- inhibition [10]: 7.95%
- residual activity [11]: 100%
- residual activity [12]: 100%
- residual activity [13]: 100%
- residual activity [14]: 100%
- residual activity (Insulin receptor): 100%
- residual activity [15]: 100%
- residual activity [16]: 80%
- residual activity [17]: 100%
- residual activity [18]: 100%
- inhibition [19]: -3.98%
- residual activity [20]: 100%
- residual activity [21]: 100%
- residual activity [22]: 100%
- residual activity [23]: 100%
- residual activity [24]: 98%
- residual activity [25]: 100%
- residual activity [26]: 100%
- residual activity [27]: 100%
- residual activity [28]: 100%
- residual activity [29]: 100%
- residual activity [30]: 100%
- residual activity [31]: 100%
- residual activity [32]: 100%
- residual activity [33]: 97%
- residual activity [34]: 100%
- residual activity [35]: 100%
- Ki [36]: 2560 nM
- residual activity [37]: 100%

Source: ChEMBL document CHEMBL4507292 (2021)
